This is an account of results in US7220721B1, “Exendin agonist peptides” (Amylin Pharmaceuticals, Inc., priority 1997, dated 2007).

pEC50, pIC50: −log10 of the molar value.

Assay [1] concerns the target cyclase (membranes). As to the kind of experiment: Cyclase activation study (cAMP SPA immunoassay). It counts as biochemical. Conditions: cAMP in supernatant after 20 minutes incubation at 37° C. of membranes and peptides. Here is the method: GLP-1[7–36]NH2 (GLP-1) was purchased from Bachem (Torrance, Calif.). All other peptides were prepared using synthesis methods such as those described therein. All chemicals were of the highest commercial grade. The cAMP SPA immunoassay was purchased from Amersham. The radioligands were purchased from New England Nuclear (Boston, Mass.). […] Cells were grown at 37° C. and 5% CO2/95% humidified air and medium was replaced every 2 to 3 days. Cells were grown to confluence then harvested and homogenized using on a Polytron homogenizer. Cell homogenates were stored frozen at −70° C. until used. Assay buffer contained 10 μM GTP, 0.75 mM ATP, 2.5 mM MgCl21 0.5 mM phosphocreatine, 12.5 U/ml creatine kinase, 0.4 mg/ml aprotinin, 1 μM IBMX in 50 mM HEPES, pH 7.4. Membranes and peptides were combined in […] of assay buffer in 96 well filter-bottom plates (Millipore Corp., Bedford, Mass.). […] Supernatant cAMP contents were quantitated by SPA immunoassay. […] The biological activity of a particular sample was expressed as an EC50 value, calculated as described above.

The subject of assay [2] is C57BLKS/J-m-db mice. As to the kind of experiment: Determination of blood glucose levels in db/db mice. It counts as in vivo. Conditions: percent decrease in plasma glucose from baseline one hour after subcutaneous injection of 1 μg.
The target of assay [3] is GLP-1 receptor (on RINm5f membranes) (UniProt P32301).
Chain of GLP-1 receptor (on RINm5f membranes) (P32301 22-463 limits assumed): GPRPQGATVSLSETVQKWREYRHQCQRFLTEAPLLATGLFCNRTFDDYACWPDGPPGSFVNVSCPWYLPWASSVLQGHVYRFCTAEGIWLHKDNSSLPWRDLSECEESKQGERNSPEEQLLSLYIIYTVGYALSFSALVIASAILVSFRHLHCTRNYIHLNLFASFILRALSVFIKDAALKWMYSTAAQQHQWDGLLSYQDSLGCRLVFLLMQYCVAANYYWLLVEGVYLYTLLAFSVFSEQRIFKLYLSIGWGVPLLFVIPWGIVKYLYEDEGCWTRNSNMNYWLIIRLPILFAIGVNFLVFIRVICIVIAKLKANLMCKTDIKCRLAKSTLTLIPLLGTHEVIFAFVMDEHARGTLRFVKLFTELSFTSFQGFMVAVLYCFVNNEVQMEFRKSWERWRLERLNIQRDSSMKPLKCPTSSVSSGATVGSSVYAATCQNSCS

In general, pEC50 refers to the negative decadic logarithm of the EC50, by convention in mol/L. The compound `CC[C@H](C)[C@H](NC(=O)[C@H](Cc1ccccc1)NC(=O)[C@H](CC(C)C)NC(=O)[C@H](CCCNC(=N)N)NC(=O)[C@@H](NC(=O)[C@H](C)NC(=O)[C@H](CCC(=O)O)NC(=O)[C@H](CCC(=O)O)NC(=O)[C@H](CCC(=O)O)NC(=O)[C@H](CC(C)C)NC(=O)[C@H](CCC(N)=O)NC(=O)[C@H](CCCCN)NC(=O)[C@H](CO)NC(=O)[C@H](CC(C)C)NC(=O)[C@H](CC(=O)O)NC(=O)[C@H](CO)NC(=O)[C@@H](NC(=O)[C@H](Cc1ccccc1)NC(=O)[C@@H](NC(=O)CNC(=O)[C@H](CCC(=O)O)NC(=O)CNC(=O)[C@H](C)N)[C@@H](C)O)[C@@H](C)O)C(C)C)C(=O)N[C@@H](CCC(=O)O)C(=O)N[C@@H](Cc1ccccc1)C(=O)N[C@@H](CC(C)C)C(=O)N[C@@H](CCCCN)C(=O)N[C@@H](CC(N)=O)C(N)=O` [Compound 1] had a pEC50 in assay [1] of less than 6.00. Also, the “% drop in glucose” value in assay [2] was 40%.
Taken in the same sequence, the figures for `CC[C@H](C)[C@H](NC(=O)[C@H](Cc1ccccc1)NC(=O)[C@H](CC(C)C)NC(=O)[C@H](CCCNC(=N)N)NC(=O)[C@@H](NC(=O)[C@H](C)NC(=O)[C@H](CCC(=O)O)NC(=O)[C@H](CCC(=O)O)NC(=O)[C@H](CCC(=O)O)NC(=O)[C@H](CC(C)C)NC(=O)[C@H](CCC(N)=O)NC(=O)[C@H](CCCCN)NC(=O)[C@H](CO)NC(=O)[C@H](CC(C)C)NC(=O)[C@H](CC(=O)O)NC(=O)[C@H](CO)NC(=O)[C@@H](NC(=O)[C@H](Cc1ccccc1)NC(=O)[C@@H](NC(=O)CNC(=O)[C@H](C)NC(=O)CNC(=O)[C@@H](N)Cc1c[nH]cn1)[C@@H](C)O)[C@@H](C)O)C(C)C)C(=O)N[C@@H](CCC(=O)O)C(=O)N[C@@H](Cc1ccccc1)C(=O)N[C@@H](CC(C)C)C(=O)N[C@@H](CCCCN)C(=O)N[C@@H](CC(N)=O)C(N)=O` [Compound 2] were less than 5.00 and 41%.
Take `CC[C@H](C)[C@H](NC(=O)[C@H](Cc1ccccc1)NC(=O)[C@H](CC(C)C)NC(=O)[C@H](CCCNC(=N)N)NC(=O)[C@@H](NC(=O)[C@H](C)NC(=O)[C@H](CCC(=O)O)NC(=O)[C@H](CCC(=O)O)NC(=O)[C@H](CCC(=O)O)NC(=O)[C@H](CC(C)C)NC(=O)[C@H](CCC(N)=O)NC(=O)[C@H](CCCCN)NC(=O)[C@H](CO)NC(=O)[C@H](CC(C)C)NC(=O)[C@H](CC(=O)O)NC(=O)[C@H](CO)NC(=O)[C@@H](NC(=O)[C@H](Cc1ccccc1)NC(=O)[C@@H](NC(=O)[C@H](C)NC(=O)[C@H](CCC(=O)O)NC(=O)CNC(=O)[C@@H](N)Cc1c[nH]cn1)[C@@H](C)O)[C@@H](C)O)C(C)C)C(=O)N[C@@H](CCC(=O)O)C(=O)N[C@@H](Cc1ccccc1)C(=O)N[C@@H](CC(C)C)C(=O)N[C@@H](CCCCN)C(=O)N[C@@H](CC(N)=O)C(N)=O` [Compound 3]: the pEC50 in assay [1] is less than 5.00. For the same compound, in assay [2], the “% drop in glucose” value amounted to 32%.
Compound `CC[C@H](C)[C@H](NC(=O)[C@H](Cc1ccccc1)NC(=O)[C@H](CC(C)C)NC(=O)[C@H](CCCNC(=N)N)NC(=O)[C@@H](NC(=O)[C@H](C)NC(=O)[C@H](CCC(=O)O)NC(=O)[C@H](CCC(=O)O)NC(=O)[C@H](CCC(=O)O)NC(=O)[C@H](CC(C)C)NC(=O)[C@H](CCC(N)=O)NC(=O)[C@H](CCCCN)NC(=O)[C@H](CO)NC(=O)[C@H](CC(C)C)NC(=O)[C@H](C)NC(=O)[C@H](CO)NC(=O)[C@@H](NC(=O)[C@H](Cc1ccccc1)NC(=O)[C@@H](NC(=O)CNC(=O)[C@H](CCC(=O)O)NC(=O)CNC(=O)[C@@H](N)Cc1c[nH]cn1)[C@@H](C)O)[C@@H](C)O)C(C)C)C(=O)N[C@@H](CCC(=O)O)C(=O)N[C@@H](Cc1ccccc1)C(=O)N[C@@H](CC(C)C)C(=O)N[C@@H](CCCCN)C(=O)N[C@@H](CC(N)=O)C(N)=O` [Compound 4] had a pEC50 in assay [1] of less than 5.00. In assay [2], the “% drop in glucose” value is 42%.
Broadly, the pIC50 is the IC50 on a negative log10 scale, so that one unit is a factor of ten. Low readings indicate a large IC50, high ones a small IC50. Exendin-4 [SEQ. ID. NO. 2] (peptide) gave a pIC50 in assay [3] of 9.15.
